Experimental data taken from PMC4682037, “Signal transduction in light–oxygen–voltage receptors lacking the adduct-forming cysteine residue” (Nature Communications, 2015).

Key:
[1] = biological target: T1, BAT-LOV* (Halorubrum hochstenium, UniProt M0FIW0, Y163F/W172F/Y247F); assay: FAD reconstitution, photoreduction by absorption spectroscopy, SEC; format: binding; settings: BAT-III; 448-nm laser
T1 construct: gene C467_03291; isolated LOV* domain, residues 141-275, synthetic gene, N-terminal His6 tag (pET28a), E. coli BL21(DE3), endogenous flavin removed by Q XL, monomer; full-length protein also has receiver, GAF and HTH modules
T1 sequence (M0FIW0 entry or part of it Y163F/W172F/Y247F): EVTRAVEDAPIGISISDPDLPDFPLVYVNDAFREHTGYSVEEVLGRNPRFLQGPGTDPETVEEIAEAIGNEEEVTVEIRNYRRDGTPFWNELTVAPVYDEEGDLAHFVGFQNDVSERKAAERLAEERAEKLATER

[2] = biological target: T2, BAT-LOV* (Halorubrum hochstenium, UniProt M0FIW0, P188C); assay: photoreduction by absorption spectroscopy; format: binding; settings: 448-nm laser; flavin presumably FAD as for the wild type
T2 construct: gene C467_03291; isolated LOV* domain, residues 141-275, synthetic gene, N-terminal His6 tag (pET28a), E. coli BL21(DE3), endogenous flavin removed by Q XL, monomer; full-length protein also has receiver, GAF and HTH modules
T2 sequence (M0FIW0 entry or part of it P188C): as the sequence (M0FIW0 entry or part of it Y163F/W172F/Y247F) above, with F23Y, F32W, P48C, F107Y counted along it

[3] = biological target: T3, VVD-III (VVD Δ36, C108A:M135I:M165I) (Neurospora crassa, UniProt Q9C3Y6, Y40E/C108A/M135I/M165I); assay: photoreduction, SEC; format: binding; settings: flavin bound on purification; 448-nm laser 30 mW, 50 mM Hepes pH 8, 150 mM NaCl
T3 construct: lacks the first 36 residues, C108A/M135I/M165I, pET28a, Ni:NTA purified from E. coli BL21(DE3)
T3 sequence (Q9C3Y6 entry or part of it Y40E/C108A/M135I/M165I): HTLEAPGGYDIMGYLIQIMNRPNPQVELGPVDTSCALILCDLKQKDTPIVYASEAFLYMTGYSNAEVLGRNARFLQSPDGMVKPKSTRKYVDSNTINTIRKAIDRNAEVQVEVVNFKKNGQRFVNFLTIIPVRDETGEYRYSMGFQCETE

[4] = biological target: T4, BAT-LOV* (Halorubrum hochstenium, UniProt M0FIW0); assay: reconstitution with excess flavin, absorption spectroscopy, SEC; format: binding; settings: incubated at least 12 h in 0.5 M NaCl, unbound flavin removed by 10 kDa filter
T4 construct: gene C467_03291; isolated LOV* domain, residues 141-275, synthetic gene, N-terminal His6 tag (pET28a), E. coli BL21(DE3), endogenous flavin removed by Q XL, monomer; full-length protein also has receiver, GAF and HTH modules
T4 sequence (M0FIW0 entry or part of it): as the sequence (M0FIW0 entry or part of it Y163F/W172F/Y247F) above, with F23Y, F32W, F107Y counted along it

[5] = biological target: T5, VVD-III (VVD Δ36, C108A:M135I:M165I) (Neurospora crassa, UniProt Q9C3Y6, C108A/M135I/M165I/Q182L); assay: photoreduction, SEC; format: binding; settings: flavin bound on purification; 448-nm laser 30 mW, 50 mM Hepes pH 8, 150 mM NaCl
T5 construct: lacks the first 36 residues, C108A/M135I/M165I, pET28a, Ni:NTA purified from E. coli BL21(DE3)
T5 sequence (Q9C3Y6 entry or part of it C108A/M135I/M165I/Q182L): as the sequence (Q9C3Y6 entry or part of it Y40E/C108A/M135I/M165I) above, with E4Y, Q146L counted along it

[6] = biological target: T4, BAT-LOV*; assay: reconstitution with excess flavin, absorption spectroscopy; format: binding; settings: incubated at least 12 h in 0.5 M NaCl, unbound flavin removed by 10 kDa filter
[7] = biological target: the molecule itself; assay: SEC; VVD-III as purified from E. coli passed through a SEC column; flavin redox states separate; blue-coloured, NSQ-containing protein

Cc1cc2nc3c(=O)[nH]c(=O)nc-3n(C[C@H](O)[C@H](O)[C@H](O)COP(=O)(O)OP(=O)(O)OC[C@H]3O[C@@H](n4cnc5c(N)ncnc54)[C@H](O)[C@@H]3O)c2cc1C [FAD]
FAD reconstitution, photoreduction by absorption spectroscopy, SEC [1]: recombinantly expressed, FAD-reconstituted (a) BAT-LOV* and (b) BAT-III (Y163F:W172F:Y247F)
photoreduction by absorption spectroscopy [2]: BAT P188C photoreduces to the HQ with little NSQ intermediate
photoreduction, SEC [3]: both the light-adapted NSQ and dark-adapted oxidized quinone states elute from SEC as monomers
reconstitution with excess flavin, absorption spectroscopy, SEC ([4]; flavin-free protein elutes in extended conformation): could be reconstituted with either FAD, FMN or riboflavin after incubation with excess cofactor
photoreduction, SEC [5]: Substituting the conserved Gln182 that interacts with flavin N5 to Leu

Cc1cc2nc3c(=O)[nH]c(=O)nc-3n(C[C@H](O)[C@H](O)[C@H](O)COP(=O)(O)O)c2cc1C [FMN]
reconstitution with excess flavin, absorption spectroscopy, SEC [4]: could be reconstituted with either FAD, FMN or riboflavin after incubation with excess cofactor

Cc1cc2nc3c(=O)[nH]c(=O)nc-3n(C[C@H](O)[C@H](O)[C@H](O)CO)c2cc1C [riboflavin]
reconstitution with excess flavin, absorption spectroscopy [6]: could be reconstituted with either FAD, FMN or riboflavin after incubation with excess cofactor

B1: VVD-III (VVD Δ36, C108A:M135I:M165I) (domain or fragment, Neurospora, UniProt Q9C3Y6 37-186, looked up)
chain: HTLYAPGGYDIMGYLIQIMNRPNPQVELGPVDTSCALILCDLKQKDTPIVYASEAFLYMTGYSNAEVLGRNARFLQSPDGMVKPKSTRKYVDSNTINTIRKAIDRNAEVQVEVVNFKKNGQRFVNFLTIIPVRDETGEYRYSMGFQCETE
notes: Vivid (VVD), LOV photoreceptor of Neurospora; lacks the first 36 N-terminal residues; C108A, M135I, M165I; Dark-adapted: oxidized quinone; light-adapted: neutral semiquinone (NSQ); also called Vivid; source: E. coli BL21(DE3), purified (Ni:NTA, SEC)
stoichiometry N [7]: 2
